The target in one experiment is memapsin 2 (Homo sapiens, UniProt P56817). The experiment can be described thus: Inhibition of memapsin 2 beta-secretase activity toward fluorogenic substrate FS-2. It counts as biochemical. The conditions noted are these: memapsin 2, pH 4, 37° C., 20 minutes pre-incubation, substrate FS-2; read-out: M2Ki. As to the method: Potency of compounds were determined by measurement of their inhibition of memapsin 2 activity toward a fluorescent substrate. Kinetic inhibition experiments were performed using the procedure as described in Ermolieff, et al. (Biochemistry 39:12450-12456 (2000), the teachings of which are incorporated hereby in their entirety). Briefly, assays were performed at pH 4, 37° C., by pre-incubation of memapsin 2 enzyme with compound for 20 minutes. Activity measurements were initiated by addition of a fluorogenic substrate FS-2 (Bachem Americas, Torrance, Calif.) MCA-SEVNLDAEFK-DNP (SEQ ID NO.: 2). The substrate was derived from 10 amino acids of the human amyloid precursor protein (APP), with the Swedish variant amino acids at the beta-secretase cleavage site. The terminal amino acid was modified from arginine to lysine to facilitate derivatization with a functional group for detection by autofluorescence. The amino acid sequence of the “core” peptide of the substrate is SEVNLDAEFK (SEQ ID NO.: 3). The amino terminus was derivatized with (7-methoxycoumarin-4-yl)acetyl (MCA), and the epsilon amine of the lysine side chain of the terminal residue (K in sequence SEVNLDAEFK (SEQ ID NO.: 4)) was derivatized with 2,4-dinitrophenyl (DNP).

Experiment [1] concerns Aβ production in Chinese hamster ovary cells that over-express human APP695 with the London and Swedish mutations. The experiment can be described thus: Cellular Aβ IC50 determination (Aβ40 sandwich ELISA). It counts as cell-based. As to conditions: Cricetulus griseus; Aβ40 in CHO cells over-expressing human APP695, 24 h incubation. As to the method: The potency of compounds against memapsin 2 activity was determined in a cellular assay of Aβ production. […] Chinese hamster ovary cells that over-express human APP695 with the London and Swedish mutations were seeded in multi-well plates at 10% confluency. Compounds are dissolved in DMSO to concentrations near 1 mM, and diluted into culture media to a final concentration near 4 μM (final 0.4% DMSO). Compounds were diluted serially and applied to cells in multi-well plates 48 h after seeding. Incubation was continued in 5% CO2 at 37° C. for 24 h. Aliquots were removed and assayed for Aβ40 content using a sandwich ELISA (BioSource International). Amount of Aβ40 over the range of concentration of compounds, relative to control incubations, were fit to a 4-parameter IC50 model.
In general terms: In an ELISA, binding on a coated surface is turned into a signal by an enzyme label.

As usually defined, the IC50 is the concentration that inhibits the measured activity by half. A low value points to higher potency.

memapsin 2, sequence (P56817 46-501): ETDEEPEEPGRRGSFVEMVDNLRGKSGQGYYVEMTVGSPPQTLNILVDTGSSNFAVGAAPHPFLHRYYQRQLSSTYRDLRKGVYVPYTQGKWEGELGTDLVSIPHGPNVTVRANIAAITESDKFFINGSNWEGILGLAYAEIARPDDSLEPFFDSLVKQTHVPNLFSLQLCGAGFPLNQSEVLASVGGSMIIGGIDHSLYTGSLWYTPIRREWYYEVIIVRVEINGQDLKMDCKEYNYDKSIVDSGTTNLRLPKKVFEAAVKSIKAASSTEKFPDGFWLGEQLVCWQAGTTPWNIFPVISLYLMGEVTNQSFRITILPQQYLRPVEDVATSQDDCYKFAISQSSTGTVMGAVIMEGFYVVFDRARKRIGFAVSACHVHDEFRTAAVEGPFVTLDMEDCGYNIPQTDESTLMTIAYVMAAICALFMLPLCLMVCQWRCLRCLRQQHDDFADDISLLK

For the compound `Cc1csc([C@H]2CCCN2C(=O)c2cncc(C(=O)N[C@@H](Cc3ccccc3)[C@H](O)CNCc3cncc(C(C)C)c3)c2)n1` [Compound 27, N-((2S,3R)-3-hydroxy-4-((5-isopropylpyridin-3-yl)methylamino)-1-phenylbutan-2-yl)-5-((R)-2-(4-methylthiazol-2-yl)pyrrolidine-1-carbonyl)nicotinamide], at memapsin 2, the Ki is < 100 nM. Further, in experiment [1], the IC50 was < 300 nM.
For `Cc1coc([C@H]2CCCN2C(=O)c2cc(CF)cc(C(=O)N[C@@H](Cc3ccccc3)[C@H](O)CNCc3cccc(C(C)(C)C)c3)c2)n1` [Compound 95, N-((2S,3R)-4-(3-tert-butylbenzylamino)-3-hydroxy-1-phenylbutan-2-yl)-3-(fluoromethyl)-5-((R)-2-(4-methyloxazol-2-yl)pyrrolidine-1-carbonyl)benzamide] the same measures were < 100 nM and < 300 nM.
Consider `Cc1coc([C@H]2CCCN2C(=O)c2cc(C(=O)N[C@@H](Cc3ccccc3)[C@H](O)CNCc3cccc(C(F)(F)F)c3)cc(-c3ncco3)c2)n1` [Compound 87, N-((2S,3R)-3-hydroxy-1-phenyl-4-(3-(trifluoromethyl)benzylamino)butan-2-yl)-3-((R)-2-(4-methyloxazol-2-yl)pyrrolidine-1-carbonyl)-5-(oxazol-2-yl)benzamide], for which, on memapsin 2, the Ki was < 100 nM. For the same compound, the IC50 in experiment [1] was < 300 nM.
For `Cc1csc([C@H]2CCCN2C(=O)c2cccc(C(=O)N[C@@H](Cc3ccccc3)[C@H](O)CNCc3cccc(Cl)c3)c2)n1` [Compound 17, N-((2S,3R)-4-(3-chlorobenzylamino)-3-hydroxy-1-phenylbutan-2-yl)-3-((R)-2-(4-methylthiazol-2-yl)pyrrolidine-1-carbonyl)benzamide], at memapsin 2, the Ki was < 100 nM. The IC50 in experiment [1] is < 300 nM.
In the same order, the values of `COc1cccc(CNC[C@@H](O)[C@H](Cc2ccccc2)NC(=O)c2cccc(C(=O)N3CCCC[C@@H]3c3nc(C)cs3)c2)c1` [Compound 5, N-((2S,3R)-3-hydroxy-4-(3-methoxybenzylamino)-1-phenylbutan-2-yl)-3-((R)-2-(4-methylthiazol-2-yl)piperidine-1-carbonyl)benzamide] are < 100 nM and > 501 nM.
In the same order, the values of `Cc1cc(C(=O)N2CCC[C@@H]2c2nc(C)cs2)cc(C(=O)N[C@@H](Cc2ccccc2)[C@H](O)CNCc2cccc(C(F)(F)F)c2)n1` [Compound 68, N-((2S,3R)-3-hydroxy-1-phenyl-4-(3-(trifluoromethyl)benzylamino)butan-2-yl)-6-methyl-4-((R)-2-(4-methylthiazol-2-yl)pyrrolidine-1-carbonyl)picolinamide] are < 100 nM and < 300 nM.
With `Cc1csc([C@H]2CCCN2C(=O)c2cc(C(=O)N[C@@H](Cc3ccccc3)[C@H](O)CNCc3cccc(C(F)(F)F)c3)cc(-c3ncco3)c2)n1` [Compound 28, N-((2S,3R)-3-hydroxy-1-phenyl-4-(3-(trifluoromethyl)benzylamino)butan-2-yl)-3-((R)-2-(4-methylthiazol-2-yl)pyrrolidine-1-carbonyl)-5-(oxazol-2-yl)benzamide], at memapsin 2, the Ki was < 100 nM. Also, in experiment [1], the IC50 is < 300 nM.
With `Cc1csc([C@H]2CCCN2C(=O)c2cc(C(=O)N[C@@H](Cc3ccccc3)[C@H](O)CNCc3cccc(C(F)(F)F)c3)ccn2)n1` [Compound 64, N-((2S,3R)-3-hydroxy-1-phenyl-4-(3-(trifluoromethyl)benzylamino)butan-2-yl)-2-((R)-2-(4-methylthiazol-2-yl)pyrrolidine-1-carbonyl)isonicotinamide], the Ki on memapsin 2 was < 100 nM. Moreover, the IC50 in experiment [1] was < 300 nM.
For `Cc1csc([C@H]2CCCN2C(=O)c2cccc(C(=O)N[C@@H](Cc3ccccc3)[C@H](O)CNCc3cc(O)cc(C(C)C)c3)c2)n1` [Compound 24, N-((2S,3R)-3-hydroxy-4-(3-hydroxy-5-isopropylbenzylamino)-1-phenylbutan-2-yl)-3-((R)-2-(4-methylthiazol-2-yl)pyrrolidine-1-carbonyl)benzamide] the same measures were < 100 nM and < 300 nM.
Regarding `COc1cccc([C@H](C)NC[C@@H](O)[C@H](Cc2ccccc2)NC(=O)c2cc(C(=O)N3CCC[C@@H]3c3nc(C)cs3)cc(C(F)F)c2)c1` [Compound 63, 3-(difluoromethyl)-N-((2S,3R)-3-hydroxy-4-((S)-1-(3-methoxyphenyl)ethylamino)-1-phenylbutan-2-yl)-5-((R)-2-(4-methylthiazol-2-yl)pyrrolidine-1-carbonyl)benzamide], the Ki on memapsin 2 was < 100 nM.
Same read-out and setting: next, `Cc1cc(C(=O)N[C@@H](Cc2ccccc2)[C@H](O)CNCc2cncc(C(C)(F)F)c2)cc(C(=O)N2CCC[C@@H]2c2nc(C)co2)c1` [Compound 113, N-((2S,3R)-4-((5-(1,1-difluoroethyl)pyridin-3-yl)methylamino)-3-hydroxy-1-phenylbutan-2-yl)-3-methyl-5-((R)-2-(4-methyloxazol-2-yl)pyrrolidine-1-carbonyl)benzamide]: < 100 nM; `Cc1csc([C@H]2CCCN2C(=O)c2cccc(C(=O)N[C@@H](Cc3ccccc3)[C@H](O)CNCc3cc(C(C)C)on3)c2)n1` [Compound 106, N-((2S,3R)-3-hydroxy-4-((5-isopropylisoxazol-3-yl)methylamino)-1-phenylbutan-2-yl)-3-((R)-2-(4-methylthiazol-2-yl)pyrrolidine-1-carbonyl)benzamide]: < 100 nM; `Cc1cc(C(=O)N[C@@H](Cc2ccccc2)[C@H](O)CNCc2cncc(C(C)(C)C)c2)cc(C(=O)N2CCC[C@@H]2c2nc(C)co2)c1` [Compound 112, N-((2S,3R)-4-((5-tert-butylpyridin-3-yl)methylamino)-3-hydroxy-1-phenylbutan-2-yl)-3-methyl-5-((R)-2-(4-methyloxazol-2-yl)pyrrolidine-1-carbonyl)benzamide]: < 100 nM.
Same read-out and setting: next, `C=C(C)c1cccc(CNC[C@@H](O)[C@H](Cc2ccccc2)NC(=O)c2cc(C)cc(C(=O)N3CCC[C@@H]3c3nc(C)co3)c2)c1` [Compound 108, N-((2S,3R)-3-hydroxy-1-phenyl-4-(3-(prop-1-en-2-yl)benzylamino)butan-2-yl)-3-methyl-5-((R)-2-(4-methyloxazol-2-yl)pyrrolidine-1-carbonyl)benzamide]: < 100 nM; `COc1cc(C(=O)N[C@@H](Cc2ccccc2)[C@H](O)CNCc2cc(Cl)cc(Cl)c2)cc(C(=O)N2CCC[C@@H]2c2nc(C)cs2)c1` [Compound 54, N-((2S,3R)-4-(3,5-dichlorobenzylamino)-3-hydroxy-1-phenylbutan-2-yl)-3-methoxy-5-((R)-2-(4-methylthiazol-2-yl)pyrrolidine-1-carbonyl)benzamide]: < 100 nM.
On to `Cc1coc([C@H]2CCCN2C(=O)c2cccc(C(=O)N[C@@H](Cc3ccccc3)[C@H](O)CNCc3cccc(OC(F)(F)F)c3)c2)n1` [Compound 114, N-((2S,3R)-3-hydroxy-1-phenyl-4-(3-(trifluoromethoxy)benzylamino)butan-2-yl)-3-((R)-2-(4-methyloxazol-2-yl)pyrrolidine-1-carbonyl)benzamide], for which, at memapsin 2, the Ki was < 100 nM.
Still for that read-out and setting: next, `Cc1coc([C@H]2CCCN2C(=O)c2cccc(C(=O)N[C@@H](Cc3ccccc3)[C@H](O)CNC3CCCCC3)c2)n1` [Compound 107, N-((2S,3R)-4-(cyclohexylamino)-3-hydroxy-1-phenylbutan-2-yl)-3-((R)-2-(4-methyloxazol-2-yl)pyrrolidine-1-carbonyl)benzamide]: > 201 nM.
Still for that read-out and setting: next, `Cc1cc(C(=O)N2CCC[C@@H]2c2nc(C)co2)cc(C(=O)N[C@@H](Cc2ccccc2)[C@H](O)CNCc2cccc(C(F)(F)F)c2)n1` [Compound 96, N-((2S,3R)-3-hydroxy-1-phenyl-4-(3-(trifluoromethyl)benzylamino)butan-2-yl)-6-methyl-4-((R)-2-(4-methyloxazol-2-yl)pyrrolidine-1-carbonyl)picolinamide]: < 100 nM; `COc1cccc(CNC[C@@H](O)[C@H](Cc2ccccc2)NC(=O)c2cccc(C(=O)N3CS(=O)(=O)C[C@@H]3c3nc(C)cs3)c2)c1` [Compound 13, N-((2S,3R)-3-hydroxy-4-(3-methoxybenzylamino)-1-phenylbutan-2-yl)-3-((R)-4-(4-methylthiazol-2-yl)thiazolidine-S-dioxide-3-carbonyl)benzamide]: > 201 nM.
Still for that read-out and setting: the value for `Cc1cc(C(=O)N[C@@H](Cc2ccccc2)[C@H](O)CNCc2cc3ccccc3o2)cc(C(=O)N2CCC[C@@H]2c2nc(C)cs2)c1` [Compound 97, N-((2S,3R)-4-(benzofuran-2-ylmethylamino)-3-hydroxy-1-phenylbutan-2-yl)-3-methyl-5-((R)-2-(4-methylthiazol-2-yl)pyrrolidine-1-carbonyl)benzamide] was > 201 nM.

The values above are taken from US8299267B2, “(3-hydroxy-4-amino-butan-2-yl) -3- (2-thiazol-2-yl-pyrrolidine-1-carbonyl) benzamide derivatives and related compounds as beta-secretase inhibitors for treating” (CoMentis, Inc., priority 2007, dated 2012).
